# Assay results published in patent publication US5440031A, “1,4,10,13-tetraoxa-7,16-diazacyclooctadecane derivatives, pharmaceutical compositions containing them and their use for the removal of toxic metal ions and radioactive isotopes from living organism” (priority 1990, dated 1995).
# Entries after “also recorded” stand apart in the source; their conditions may differ.
# Key:
# laboratory mice and rats = assay: acute toxicity, LD50/30, injection into blood circulation, 30 days observation; type: in vivo, Swiss mice and Wistar rats
# Experimental: The acute toxicity values of the products prepared according to Examples 1 to 16 were determined on laboratory mice and rats in the following manner.
# Solutions containing the compounds in various concentrations were prepared by using physiological saline solution or glucose solution of 5% by weight concentration and the active agents were administered in various concentrations into the blood circulation of the animals by injecting them slowly during 3 to 5 minutes. Groups consisting of 6 to 10 animals (Swiss mice and Wistar rats of both sexes) each were used for the various dose levels. […] The LD50/30 value (i.e. the dose causing the death of 50% of the experimental animals within 30 days) was determined from the number of animals died during this period by using probit analysis/D. J. Finney: Probit Analysis (2nd ed.) Cambridge University Press (1952)/. These values expressed in mmol/kg of body-weight for the active agents according to the invention are summarized in column (B) of Table 1.
# [1] = decorporation investigations by various routes, whole-body activity and deposition in bones; type: in vivo, Swiss mice and Wistar rats; conditions: decorporating effect; disodium salt
# Excerpt: (§1) The action of the compounds of formula (I) according to the invention, which manifests itself as an increase in the elimination of metal ions damaging the living organism, was investigated by using radioactive strontium or cerium ions on Swiss mice and Wistar rats of both sexes.
# (§2) The elimination was studied on radioactive isotopes introduced in various routes to various sites, e.g. to the blood circulation, abdominal cavity, lungs, muscles or subcutaneous connective tissue of the experimental animals. The compound increasing the elimination of the isotopes was administered daily once or two times in the form of an injection, powder or liquid aerosol or plaster to the organism of the experimental animals. Thereafter, whole body activity measurements were performed and retention curves were taken up which then were compared to the results obtained in the control group.
# The retention curves obtained were analysed on a computer. "Nonlinear Regression by the Code of BMDP-3R" (BMDP Statistical Software Manual, UCLA, Los Angeles, 1990, Chief Ed. W. J. Dixon) computer software was used for this purpose. It could be stated from the results obtained that the curves could be described by a two-component descending exponential function. Two data were calculated for characterizing the effectivity. […]
# [2] = literature; cited from earlier work
# [3] = radioactive isotope elimination-increasing effect, isotope into abdominal cavity, whole-body retention; type: in vivo, Swiss mice
# Excerpt: as §1, §2
# The retention curves obtained were analysed on a computer. "Nonlinear Regression by the Code of BMDP-3R" (BMDP Statistical Software Manual, UCLA, Los Angeles, 1990, Chief Ed. W. J. Dixon) computer software was used for this purpose. It could be stated from the results obtained that the curves could be described by a two-component descending exponential function. Two data were calculated for characterizing the effectivity. One of these was the so-called F factor indicating the increase in the elimination in relation to the control and meaning the multiplication of the isotope elimination under effect of the test compound in relation to the untreated animals/see column (C) in Table 1/.
# For the illustrative comparison of the compounds according to the invention additional characteristic data, the so-called EI values are given which were obtained by multiplying the extent of isotope elimination as percentage related to the control group (effectivity, E) with the acute toxicity value (LD50/30, innocuous, I)/see column (D) in Table 1/. Although the EI value is numerically not identical to the therapeutic ratio (safety index), it indicates in all cases to a weak or excellent activity of a product.
# The radioactive isotope elimination-increasing effects of compounds prepared according to Examples 1 to 16 were compared on Swiss mice as described hereinafter.
# An activity of 37 to 74 kBg (1 to 2 μCi) of radioactive strontium (Sr-85Cl2) or radioactive cerium (Ce-144Cl3), respectively, was administered into the abdominal cavity of the animals which were then divided into treatment groups consisting of 5 to 10 animals each. At 30 to 60 minutes after administration of the isotope, the animals of the treated groups were intravenously (i.v.) given the active agent used in an amount to achieve s concentration of 50 to 100 μmol/kg of body-weight in the animal organism for each treatment. The animals of the control groups were similarly treated with the carrier (sterile physiological saline or glucose solution of 5% by weight concentration) without active agent.
# The amount of radioactivity introduced to the animal organism was determined immediately after administration of the isotope, thru these measurements were repeated daily or in every two the or three days in a device constructed for the purpose of the whole-body measurements on small animals. The counts observed were related to the starting activity value of the zero (0) day and a so-called retention/time correlation was obtained by considering the activity retained in the organism. The change of activity of the animal organism in the time is illustrated in FIG. 1 where the time (in days) elapsed after the treatment is shown on the abscissa and the whole-body retention as percentage is plotted on the ordinate. It can be seen that the rate of elimination of Sr-85 administered into the abdominal cavity of control animals was slow: within 1 day only 15%, within 4 days 25% and within 7 days 30% of the activity were eliminated from their organism and the elimination was even more delayed in the later period. […]
# [4] = elimination of radioactive strontium introduced through the trachea into the lungs, whole-body retention (FIG. 2); type: in vivo, Wistar rats
# Excerpt: FIGS. 2 & 3 show the percentages of metal ions retained in the body, plotted over 32 days after treatment with compound "b)" of example 6 at both full and double strength, referenced against an untreated control.
# a) The whole-body retention curves illustrated in FIG. 2 show the elimination of radioactive strontium introduced through the trachea into the lungs of Wistar rats after intraperitoneal (i.p.) administration of the compound described in Example 6 b). It can be seen from the pattern of the upper curve of FIG. 2 that the radioactive strontium was eliminated to a low grade from the organism of control animals treated only with the solvent. Not more than 30 to 35% of the starting activity were eliminated in the days following the inner contamination. […] The rapid elimination of the isotope was continued in the days following the treatment, and reached 88 to 90% in the once-treated group and 94 to 96% in the twice-treated group. […] The residual activity of 5 to 10% measured as whole-body retention was found in the soft parts and liver of the animals whereas the major part (65 to 70%) of the retention found in the controls were built in to the bones. Similarly advantageous results were obtained by administering the compounds according to the invention in an intravenous route or into the subcutaneous connective tissue.
molecule,measurement,setting,value
"O=C([O-])C(C(=O)[O-])N1CCOCCOCCN(C(C(=O)[O-])C(=O)[O-])CCOCCOCC1.[Ca+2].[Na+].[Na+] [N,N'-bis(dicarboxymethyl)-1,4,10,13-tetraoxa-7,16-diazacyclooctadecane calcium complex disodium salt]",toxicity (in words),laboratory mice and rats; in vivo,low toxicity
same,effectivity (in words),[1],particularly outstanding effect; also recorded: high decorporating effectivity
O=C(O)CN(CCN(CC(=O)O)CC(=O)O)CCN(CC(=O)O)CC(=O)O [diethylenetriaminepentaacetic acid],stability of calcium complexes versus strontium complexes,[2],substantially more stable than their strontium complexes
O=C(O)CN(CCN(CC(=O)O)CC(=O)O)CC(=O)O [ethylenediaminetetraacetic acid],stability of calcium complexes versus strontium complexes,[2],substantially more stable than their strontium complexes
"N,N'-bis(dicarboxymethyl)-1,4,10,13-tetraoxa-7,16-diazacyclooctadecane calcium complex disodium salt containing disodium hydroxymalonate and sodium chloride [6/b]",Acute toxicity LD50/30,"laboratory mice and rats; dose causing death of 50% of animals within 30 days, slow injection into the blood circulation during 3 to 5 minutes, mice and rats, probit analysis",above 3.0 mmol/kg
same,EI value,"[3]; effectivity (isotope elimination as % related to control) multiplied by LD50/30, 0-5 weak, 5-50 medium, 50-100 good, above 100 excellent",160.00
same,F factor,"[3]; multiplication of isotope elimination relative to untreated animals, i.v. 50 to 100 μmol/kg, 30 to 60 minutes after isotope",4.2
same,radioactive strontium in the bones,"[4]; animals killed at the end of the experiment, controls 65 to 70% of retention built in to the bones",hardly any or no radioactive strontium could be detected
same,"whole-body load within 1 day following the treatment, treated once","[4]; i.p., once with 50 μmol/kg, control 90%",20%
same,"whole-body load within 1 day following the treatment, treated twice","[4]; i.p., twice in 3-hour interval, control 90%",20%
